According to patent EP4571306A1, “STABILIZING OXYGEN IN A COMPOSITION” (priority 2023, dated 2025):

Experimental: To test for sensor stability and performance, a cartridge use life test was completed after one month of cartridge shelf-life and then repeated after eight months of cartridge shelf-life.
Additionally, reagent performance on the GEM® Premier™ 5000 system was evaluated based on drift of parameters for assays performed on the GEM® Premier™ 5000 system. Drift for each assay parameter constitutes a deviation of measured results for each assay parameter from its factory assigned target. For example, ρO2 was measured several times during cartridge use at a defined frequency on the GEM® Premier™ 5000, and the drift was calculated for each measurement as the difference between measured […] for a composition and the ρO2 assigned to the composition at manufacture.
In this experiment, the control containers were confirmed to contain limited or no metal contamination (e.g., in parts-per-billion, cobalt 0.10, chromium 2.24, copper 0.64, iron 3.23, and manganese 0.63). The limits columns represents the maximum change that can occur during composition shelf-life according to the GEM® Premier™ 5000 design specifications.

C[C@H]1COc2c(N3CCN(C)CC3)c(F)cc3c(=O)c(C(=O)O)cn1c23 [levofloxacin]
effect on sensor performance and the performance and stability of the compositions: does not negatively affect sensor performance
